Active and inactive are the calls of the source.
Experiments:
Olfactory receptor 51E2 = biological target: T1, Olfactory receptor 51E2 (Homo sapiens, UniProt Q9H255); assay: Agonist activity at PSGR/OR51E2 (unknown origin) expressed in human Hana3A cells co-transfected with CRE-Luc by luciferase reporter gene assay; assay type: functional, cell-based
T1 sequence (Q9H255 whole entry): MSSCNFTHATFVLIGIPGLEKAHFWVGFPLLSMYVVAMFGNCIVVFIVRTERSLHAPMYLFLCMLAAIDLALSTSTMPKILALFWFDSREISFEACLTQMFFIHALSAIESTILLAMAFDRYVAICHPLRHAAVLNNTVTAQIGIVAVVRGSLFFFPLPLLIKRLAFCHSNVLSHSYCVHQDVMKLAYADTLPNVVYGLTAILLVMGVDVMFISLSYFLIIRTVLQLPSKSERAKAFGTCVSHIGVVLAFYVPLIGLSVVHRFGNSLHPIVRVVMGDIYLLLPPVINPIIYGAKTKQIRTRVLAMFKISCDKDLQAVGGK

[1] = biological target: T2, Olfactory receptor 51E2 (Homo sapiens) (UniProt Q9H255); assay: Agonist activity at PSGR/OR51E2 (unknown origin) expressed in human Hana3A cells co-transfected with CRE-Luc by luciferase reporter gene assay relative to control 1 mM propionic acid; assay type: functional, cell-based
T2 sequence (whole entry): T1 sequence (Q9H255 whole entry)

[2] = biological target: T2, Olfactory receptor 51E2 (Homo sapiens); assay: Agonist activity at PSGR/OR51E2 in human LNCaP cells assessed as induction of change in extracellular metabolites level by measuring glyceric acid level at 100 nM incubated for 72 hrs by GC/MS analysis; assay type: cell-based
[3] = biological target: T2, Olfactory receptor 51E2 (Homo sapiens); assay: Agonist activity at PSGR/OR51E2 in human LNCaP cells assessed as induction of change in extracellular metabolites level by measuring cysteine level at 100 nM incubated for 72 hrs by GC/MS analysis; assay type: cell-based
[4] = biological target: T2, Olfactory receptor 51E2 (Homo sapiens); assay: Agonist activity at PSGR/OR51E2 in human LNCaP cells assessed as induction of change in extracellular metabolites level by measuring 2-ketoleucine level at 100 nM incubated for 72 hrs by GC/MS analysis; assay type: cell-based
[5] = biological target: T2, Olfactory receptor 51E2 (Homo sapiens); assay: Agonist activity at PSGR/OR51E2 in human LNCaP cells assessed as induction of change in extracellular metabolites level by measuring benzoic-acid level at 100 nM incubated for 72 hrs by GC/MS analysis; assay type: cell-based
[6] = biological target: T2, Olfactory receptor 51E2 (Homo sapiens); assay: Agonist activity at PSGR/OR51E2 in human LNCaP cells assessed as induction of change in extracellular metabolites level by measuring guanine level at 100 nM incubated for 72 hrs by GC/MS analysis; assay type: cell-based
[7] = biological target: T2, Olfactory receptor 51E2 (Homo sapiens); assay: Agonist activity at PSGR/OR51E2 in human LNCaP cells assessed as induction of change in intracellular metabolites level by measuring malic acid level at 100 nM incubated for 72 hrs by GC/MS analysis; assay type: cell-based
[8] = biological target: T2, Olfactory receptor 51E2 (Homo sapiens); assay: Agonist activity at PSGR/OR51E2 in human LNCaP cells assessed as induction of change in intracellular metabolites level by measuring threonine level at 100 nM incubated for 72 hrs by GC/MS analysis; assay type: cell-based
[9] = biological target: T2, Olfactory receptor 51E2 (Homo sapiens); assay: Agonist activity at PSGR/OR51E2 in human LNCaP cells assessed as induction of change in intracellular metabolites level by measuring pantothenic acid level at 100 nM incubated for 72 hrs by GC/MS analysis; assay type: cell-based
[10] = biological target: T2, Olfactory receptor 51E2 (Homo sapiens); assay: Agonist activity at PSGR/OR51E2 in human LNCaP cells assessed as induction of change in intracellular metabolites level by measuring tyrosine level at 100 nM incubated for 72 hrs by GC/MS analysis; assay type: cell-based
[11] = biological target: T2, Olfactory receptor 51E2 (Homo sapiens); assay: Agonist activity at PSGR/OR51E2 in human LNCaP cells assessed as induction of change in intracellular metabolites level by measuring fumaric acid level at 100 nM incubated for 72 hrs by GC/MS analysis; assay type: cell-based
[12] = biological target: T2, Olfactory receptor 51E2 (Homo sapiens); assay: Agonist activity at PSGR/OR51E2 in human LNCaP cells assessed as induction of change in intracellular metabolites level by measuring alanine level at 100 nM incubated for 72 hrs by GC/MS analysis; assay type: cell-based
[13] = biological target: T2, Olfactory receptor 51E2 (Homo sapiens); assay: Agonist activity at PSGR/OR51E2 in human LNCaP cells assessed as induction of change in intracellular metabolites level by measuring guanine level at 100 nM incubated for 72 hrs by GC/MS analysis; assay type: cell-based
[14] = biological target: T2, Olfactory receptor 51E2 (Homo sapiens); assay: Agonist activity at PSGR/OR51E2 in human LNCaP cells assessed as induction of change in intracellular metabolites level by measuring serine level at 100 nM incubated for 72 hrs by GC/MS analysis; assay type: cell-based
[15] = biological target: T2, Olfactory receptor 51E2 (Homo sapiens); assay: Agonist activity at PSGR/OR51E2 in human LNCaP cells assessed as induction of change in intracellular metabolites level by measuring lactic acid level at 100 nM incubated for 72 hrs by GC/MS analysis; assay type: cell-based
[16] = biological target: T2, Olfactory receptor 51E2 (Homo sapiens); assay: Agonist activity at PSGR/OR51E2 in human LNCaP cells assessed as induction of change in extracellular metabolites level by measuring n-acetylaspartic acid level at 100 nM incubated for 72 hrs by GC/MS analysis; assay type: cell-based
[17] = biological target: T2, Olfactory receptor 51E2 (Homo sapiens); assay: Agonist activity at PSGR/OR51E2 in human LNCaP cells assessed as induction of change in extracellular metabolites level by measuring asparagine level at 100 nM incubated for 72 hrs by GC/MS analysis; assay type: cell-based
[18] = biological target: T2, Olfactory receptor 51E2 (Homo sapiens); assay: Agonist activity at PSGR/OR51E2 in human LNCaP cells assessed as induction of neuroendocrine trans-differentiation related gene expression by measuring increase in NSE mRNA expression incubated for 12 days by RT-PCR analysis; assay type: cell-based
[19] = biological target: T2, Olfactory receptor 51E2 (Homo sapiens); assay: Agonist activity at PSGR/OR51E2 in human LNCaP cells assessed as induction of neuroendocrine trans-differentiation related gene expression by measuring increase in AMACR mRNA expression incubated for 12 days by RT-PCR analysis; assay type: cell-based
[20] = biological target: T2, Olfactory receptor 51E2 (Homo sapiens); assay: Agonist activity at PSGR/OR51E2 in human LNCaP cells assessed as induction of change in intracellular metabolites level by measuring fructose-6-phosphate level at 100 nM incubated for 72 hrs by GC/MS analysis; assay type: cell-based
[21] = biological target: T2, Olfactory receptor 51E2 (Homo sapiens); assay: Agonist activity at PSGR/OR51E2 in human LNCaP cells assessed as induction of change in extracellular metabolites level by measuring hydroxyprolines level at 100 nM incubated for 72 hrs by GC/MS analysis; assay type: cell-based
[22] = biological target: T2, Olfactory receptor 51E2 (Homo sapiens); assay: Agonist activity at PSGR/OR51E2 in human LNCaP cells assessed as induction of change in extracellular metabolites level by measuring urea level at 100 nM incubated for 72 hrs by GC/MS analysis; assay type: cell-based
[23] = biological target: T2, Olfactory receptor 51E2 (Homo sapiens); assay: Agonist activity at PSGR/OR51E2 in human LNCaP cells assessed as induction of change in intracellular metabolites level by measuring urea level at 100 nM incubated for 72 hrs by GC/MS analysis; assay type: cell-based
[24] = biological target: T2, Olfactory receptor 51E2 (Homo sapiens); assay: Agonist activity at PSGR/OR51E2 in human LNCaP cells assessed as induction of change in extracellular metabolites level by measuring alpha-ketoglutaric acid level at 100 nM incubated for 72 hrs by GC/MS analysis; assay type: cell-based
[25] = biological target: T2, Olfactory receptor 51E2 (Homo sapiens); assay: Agonist activity at PSGR/OR51E2 in human LNCaP cells assessed as induction of change in extracellular metabolites level by measuring beta-alanine level at 100 nM incubated for 72 hrs by GC/MS analysis; assay type: cell-based
[26] = biological target: T2, Olfactory receptor 51E2 (Homo sapiens); assay: Agonist activity at PSGR/OR51E2 in human LNCaP cells assessed as induction of change in extracellular metabolites level by measuring hydroquinone level at 100 nM incubated for 72 hrs by GC/MS analysis; assay type: cell-based
[27] = biological target: T2, Olfactory receptor 51E2 (Homo sapiens); assay: Agonist activity at PSGR/OR51E2 in human LNCaP cells assessed as induction of change in extracellular metabolites level by measuring glutaric acid level at 100 nM incubated for 72 hrs by GC/MS analysis; assay type: cell-based
[28] = biological target: T2, Olfactory receptor 51E2 (Homo sapiens); assay: Agonist activity at PSGR/OR51E2 in human LNCaP cells assessed as induction of change in intracellular metabolites level by measuring beta-alanine level at 100 nM incubated for 72 hrs by GC/MS analysis; assay type: cell-based
[29] = biological target: T2, Olfactory receptor 51E2 (Homo sapiens); assay: Agonist activity at PSGR/OR51E2 in human LNCaP cells assessed as induction of neuroendocrine trans-differentiation related gene expression by measuring increase in OR51E2 mRNA expression incubated for 12 days by RT-PCR analysis; assay type: cell-based
[30] = biological target: T2, Olfactory receptor 51E2 (Homo sapiens); assay: Agonist activity at PSGR/OR51E2 in human LNCaP cells assessed as induction of change in intracellular metabolites level by measuring adenosine/inosine level at 100 nM incubated for 72 hrs by GC/MS analysis; assay type: cell-based
[31] = biological target: T2, Olfactory receptor 51E2 (Homo sapiens); assay: Agonist activity at PSGR/OR51E2 in human LNCaP cells assessed as induction of change in extracellular metabolites level by measuring succinic acid level at 100 nM incubated for 72 hrs by GC/MS analysis; assay type: cell-based
[32] = biological target: T2, Olfactory receptor 51E2 (Homo sapiens); assay: Agonist activity at PSGR/OR51E2 in human LNCaP cells assessed as induction of change in intracellular metabolites level by measuring tyramine level at 100 nM incubated for 72 hrs by GC/MS analysis; assay type: cell-based
[33] = biological target: T2, Olfactory receptor 51E2 (Homo sapiens); assay: Agonist activity at PSGR/OR51E2 in human LNCaP cells assessed as induction of change in intracellular metabolites level by measuring glucose-6-phosphate level at 100 nM incubated for 72 hrs by GC/MS analysis; assay type: cell-based
[34] = biological target: T2, Olfactory receptor 51E2 (Homo sapiens); assay: Agonist activity at PSGR/OR51E2 in human LNCaP cells assessed as induction of change in extracellular metabolites level by measuring 2-deoxyglucose level at 100 nM incubated for 72 hrs by GC/MS analysis; assay type: cell-based

H-RPPGFSPFR-OH [BRADYKININ]
1.3 nM: EC50 (Olfactory receptor 51E2)

Oc1ccc(-c2[o+]c3cc(O)cc(O)c3cc2O)cc1
0.621: Ratio [1]

H-RPPGFSPFR-OH
0.762: Ratio [1]

C[C@]12CC[C@H]3[C@@H](CCC4=CC(=O)CC[C@@]43CO)[C@@H]1CCC2=O
active: Activity [2] | Activity [3] | Activity [4] | Activity [5] | Activity [6] | Activity [7] | Activity [8] | Activity [9] | Activity [10] | Activity [11] | Activity [12] | Activity [13] | Activity [14] | Activity [15] | Activity [16] | Activity [17] | Activity [18] | Activity [19] | Activity [20] | Activity [21] | Activity [22] | Activity [23] | Activity [24] | Activity [25] | Activity [26] | Activity [27] | Activity [28] | Activity [29] | Activity [30] | Activity [31] | Activity [32] | Activity [33] | Activity [34]

COc1cc(CCC(=O)CC(=O)CCc2ccc(O)c(OC)c2)ccc1O
0.284: Ratio [1]

O=C1CN=CN1
0.678: Ratio [1]

Nc1nc2[nH]c(O)nc2c(=O)[nH]1
0.00044 nM: EC50 (Olfactory receptor 51E2)

From ChEMBL document CHEMBL4482311, “Modulators of Prostate-Specific G-Protein Receptor (PSGR/OR51E2) and Methods of Using Same” (2018)
